Where two headings read alike, the source gives them in different places.
Experiments:
Full length Human HDAC8 = target: T1, Full length Human HDAC8 (Homo sapiens, UniProt Q9BY41)
T1 sequence (Q9BY41 1-377): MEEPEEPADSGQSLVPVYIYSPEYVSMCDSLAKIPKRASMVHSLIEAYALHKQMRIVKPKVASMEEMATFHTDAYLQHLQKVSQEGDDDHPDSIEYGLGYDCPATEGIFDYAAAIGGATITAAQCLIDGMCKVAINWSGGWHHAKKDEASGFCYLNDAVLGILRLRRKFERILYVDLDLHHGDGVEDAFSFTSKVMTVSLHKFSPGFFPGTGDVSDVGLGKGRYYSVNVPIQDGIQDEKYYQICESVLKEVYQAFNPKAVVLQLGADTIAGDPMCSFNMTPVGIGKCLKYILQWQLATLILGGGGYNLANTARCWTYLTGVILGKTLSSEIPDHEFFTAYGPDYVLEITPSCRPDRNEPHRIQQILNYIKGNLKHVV

[1] = target: Full length Human HDAC3 co-expressed with Human NCOR2 (Homo sapiens, UniProt O15379)
Human HDAC7 aa 518-end = target: T2, Human HDAC7 aa 518-end (Homo sapiens, UniProt Q8WUI4)
T2 sequence (Q8WUI4 518-952 limits assumed): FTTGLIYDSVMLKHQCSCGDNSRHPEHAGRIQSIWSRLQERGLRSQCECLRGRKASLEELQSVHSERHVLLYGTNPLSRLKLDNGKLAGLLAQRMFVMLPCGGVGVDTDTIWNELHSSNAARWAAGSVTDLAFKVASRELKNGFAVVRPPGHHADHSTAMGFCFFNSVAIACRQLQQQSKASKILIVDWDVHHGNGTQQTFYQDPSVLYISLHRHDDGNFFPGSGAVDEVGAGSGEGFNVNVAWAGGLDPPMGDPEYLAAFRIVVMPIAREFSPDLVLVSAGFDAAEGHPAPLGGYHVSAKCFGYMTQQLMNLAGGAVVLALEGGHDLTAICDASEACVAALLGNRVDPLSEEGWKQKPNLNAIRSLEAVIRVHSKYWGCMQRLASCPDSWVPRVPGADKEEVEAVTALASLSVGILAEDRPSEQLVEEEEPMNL

Full length Human HDAC6 = target: T3, Full length Human HDAC6 (Homo sapiens, UniProt Q9UBN7)
T3 sequence (Q9UBN7 1-1215): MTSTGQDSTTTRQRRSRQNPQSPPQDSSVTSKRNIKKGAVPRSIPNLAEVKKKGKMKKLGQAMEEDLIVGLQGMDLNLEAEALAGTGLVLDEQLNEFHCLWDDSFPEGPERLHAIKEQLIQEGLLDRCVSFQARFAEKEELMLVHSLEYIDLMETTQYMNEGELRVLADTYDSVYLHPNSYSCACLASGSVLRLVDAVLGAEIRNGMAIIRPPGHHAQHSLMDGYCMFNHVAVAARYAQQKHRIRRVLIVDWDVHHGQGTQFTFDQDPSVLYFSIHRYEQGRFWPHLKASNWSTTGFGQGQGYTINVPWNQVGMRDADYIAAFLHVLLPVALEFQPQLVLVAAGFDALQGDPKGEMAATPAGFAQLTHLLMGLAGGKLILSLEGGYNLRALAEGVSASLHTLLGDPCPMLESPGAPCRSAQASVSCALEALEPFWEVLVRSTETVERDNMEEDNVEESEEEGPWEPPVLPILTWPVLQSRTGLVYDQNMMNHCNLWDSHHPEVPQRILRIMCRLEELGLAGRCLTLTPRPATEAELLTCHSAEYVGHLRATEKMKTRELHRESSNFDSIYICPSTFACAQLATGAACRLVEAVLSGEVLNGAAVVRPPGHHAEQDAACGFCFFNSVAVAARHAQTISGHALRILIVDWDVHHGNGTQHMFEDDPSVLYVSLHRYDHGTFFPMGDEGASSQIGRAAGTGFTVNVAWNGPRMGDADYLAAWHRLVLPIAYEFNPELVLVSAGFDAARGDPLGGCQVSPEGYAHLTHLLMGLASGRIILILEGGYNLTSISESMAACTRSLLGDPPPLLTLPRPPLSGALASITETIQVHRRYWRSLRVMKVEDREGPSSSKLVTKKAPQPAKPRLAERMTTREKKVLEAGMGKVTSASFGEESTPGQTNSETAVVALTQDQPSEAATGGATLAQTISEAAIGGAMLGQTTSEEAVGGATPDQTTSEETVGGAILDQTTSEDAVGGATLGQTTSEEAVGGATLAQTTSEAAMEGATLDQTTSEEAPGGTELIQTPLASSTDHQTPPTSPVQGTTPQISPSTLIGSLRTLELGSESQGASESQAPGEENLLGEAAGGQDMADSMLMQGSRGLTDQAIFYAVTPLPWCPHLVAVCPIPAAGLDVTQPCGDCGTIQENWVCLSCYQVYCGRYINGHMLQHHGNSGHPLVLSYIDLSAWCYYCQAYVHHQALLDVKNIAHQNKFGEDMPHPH

Full length Human HDAC10 = target: T4, Full length Human HDAC10 (Homo sapiens, UniProt Q969S8)
T4 sequence (Q969S8 1-669): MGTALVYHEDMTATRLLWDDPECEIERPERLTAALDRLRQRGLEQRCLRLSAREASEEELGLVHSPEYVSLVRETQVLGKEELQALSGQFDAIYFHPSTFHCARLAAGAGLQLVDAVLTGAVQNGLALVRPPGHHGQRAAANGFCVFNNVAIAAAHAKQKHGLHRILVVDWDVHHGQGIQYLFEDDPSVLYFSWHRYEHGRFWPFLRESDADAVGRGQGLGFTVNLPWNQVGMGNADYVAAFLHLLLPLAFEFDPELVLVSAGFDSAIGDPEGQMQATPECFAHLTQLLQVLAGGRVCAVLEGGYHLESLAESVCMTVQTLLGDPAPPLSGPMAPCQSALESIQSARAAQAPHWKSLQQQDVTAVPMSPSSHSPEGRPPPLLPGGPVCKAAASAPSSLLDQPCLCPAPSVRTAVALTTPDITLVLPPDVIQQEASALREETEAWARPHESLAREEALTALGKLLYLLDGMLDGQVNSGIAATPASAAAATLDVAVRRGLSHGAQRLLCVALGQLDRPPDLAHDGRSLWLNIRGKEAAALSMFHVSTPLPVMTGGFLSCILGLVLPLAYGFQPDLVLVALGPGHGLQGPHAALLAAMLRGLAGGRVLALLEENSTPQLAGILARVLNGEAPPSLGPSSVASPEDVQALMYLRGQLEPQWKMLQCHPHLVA

[2] = read-out: In vitro enzymatic IC50, HDAC Paralog 8, Table 2
[3] = read-out: In vitro enzymatic IC50, HDAC Paralog 6, Table 2

Chain of Full length Human HDAC3 co-expressed with Human NCOR2 (O15379 whole entry, the tested form may be a part): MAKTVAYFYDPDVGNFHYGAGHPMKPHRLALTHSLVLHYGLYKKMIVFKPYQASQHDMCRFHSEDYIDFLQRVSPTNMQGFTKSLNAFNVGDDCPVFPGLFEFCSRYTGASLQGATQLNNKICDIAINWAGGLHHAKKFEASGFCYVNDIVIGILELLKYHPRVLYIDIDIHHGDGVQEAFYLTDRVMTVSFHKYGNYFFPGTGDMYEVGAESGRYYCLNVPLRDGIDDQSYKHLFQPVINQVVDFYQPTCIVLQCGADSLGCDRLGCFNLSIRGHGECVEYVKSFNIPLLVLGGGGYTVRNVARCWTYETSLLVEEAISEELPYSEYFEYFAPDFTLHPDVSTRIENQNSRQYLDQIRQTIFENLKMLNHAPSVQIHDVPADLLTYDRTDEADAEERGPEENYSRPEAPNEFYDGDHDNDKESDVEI
Chain of Full length Human HDAC3 co-expressed with Human NCOR2 (Q9Y618 395-489 partner limits assumed): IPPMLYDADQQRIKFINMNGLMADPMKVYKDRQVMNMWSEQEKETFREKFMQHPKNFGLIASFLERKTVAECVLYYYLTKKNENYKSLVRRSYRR

Compound	IC50 (Full length Human HDAC8) [nM]	IC50 [1] [nM]	IC50 (Human HDAC7 aa 518-end) [nM]	IC50 (Full length Human HDAC6) [nM]	IC50 (Full length Human HDAC10) [nM]	IC50 (Full length Human HDAC8; [2]) [nM]	IC50 (Full length Human HDAC6; [3]) [nM]
O=C(NO)c1ccc(CN2C[C@H]3CC[C@@H]2CO3)c(F)c1 (single isomer, unassigned) [compound 173]	1000 to 10000	1000 to 10000	1000 to 10000	1 to 100	10000 to 100000	–	–
O=C(NO)c1cc(F)c2c(c1)C[C@H]1CCCCN1C2 (single isomer, unassigned) [compound 94]	1000 to 10000	10000 to 100000	1000 to 10000	100 to 1000	> 100000	–	–
O=C(NO)c1cc(F)c2c(c1)CCN(Cc1ccccc1)C2 [compound 32]	1000 to 10000	–	1000 to 10000	1 to 100	10000 to 100000	1000 to 10000	1 to 100
O=C(NO)c1ccc(CN2C[C@@H]3CC[C@H]2CO3)c(F)c1 (single isomer, unassigned) [compound 172]	1000 to 10000	10000 to 100000	1000 to 10000	1 to 100	> 100000	1000 to 10000	1 to 100
O=C(NO)c1ccc(CN2CCC3(CCCCC3)C2)c(F)c1 [compound 75, 4-((2-Azaspiro[4.5]decan-2-yl)methyl)-3-fluoro-N-hydroxybenzamide]	1000 to 10000	–	1000 to 10000	1 to 100	10000 to 100000	1000 to 10000	1 to 100
O=C(NO)c1cc(F)c2c(c1)CCN1CCC[C@@H]21 (single isomer, unassigned) [compound 79]	1000 to 10000	1000 to 10000	100 to 1000	1 to 100	10000 to 100000	–	–
O=C(NO)c1cc(F)c2c(c1)CCN(C1CC3(CCCCC3)C1)C2 [compound 16]	10000 to 100000	10000 to 100000	10000 to 100000	1 to 100	10000 to 100000	10000 to 100000	1 to 100
O=C(NO)c1cc(F)c2c(c1)C[C@@H]1CCCCN1C2 (single isomer, unassigned) [compound 93]	1000 to 10000	1000 to 10000	1000 to 10000	1 to 100	10000 to 100000	–	–
O=C(NO)c1ccc(CN2CC3CCC(C2)O3)c(F)c1 [compound 53]	100 to 1000	1000 to 10000	100 to 1000	1 to 100	1000 to 10000	100 to 1000	1 to 100
O=C(NO)c1cc(F)c2c(c1)CCN(CC13CC4CC(CC(C4)C1)C3)C2 [compound 34]	10000 to 100000	1000 to 10000	10000 to 100000	1 to 100	10000 to 100000	10000 to 100000	1 to 100
O=C(NO)c1ccc2c(c1)CN1CCCCN1C2 [compound 106, N-hydroxy-1,2,3,4,6,11-hexahydropyridazino[1,2-b]phthalazine-8-carboxamide]	1000 to 10000	1000 to 10000	10000 to 100000	100 to 1000	> 100000	1000 to 10000	100 to 1000
O=C(NO)c1ccc(CN2CC3CCC2CO3)c(F)c1 (centres unmarked) [compound 58]	100 to 1000	1000 to 10000	1000 to 10000	1 to 100	10000 to 100000	100 to 1000	1 to 100

From US12528767B2, “HDAC6 inhibitors and uses thereof” (Eikonizo Therapeutics, Inc., priority 2019, dated 2026)
